Measured values published in patent US7361680B2, “Indole compounds useful for the treatment of cancer” (The Regents of the University of California, priority 1999, dated 2008).
Residues, ends and D or L forms follow the SMILES beside them. *: point of attachment. Cbz = O=C(OCc1ccccc1)*; CH2F = FC*

What was measured:
[1] = target: T1, COX-1 isolated from human platelets (Homo sapiens, UniProt P23219); assay: COX-1 enzyme assay (PGE2 enzyme immunoassay); assay type: biochemical; settings: duplicate
T1 construct: COX-1 isolated from human platelets; tissue MDS Pharma Services; host or cells: human platelets
T1 sequence (P23219 24-599): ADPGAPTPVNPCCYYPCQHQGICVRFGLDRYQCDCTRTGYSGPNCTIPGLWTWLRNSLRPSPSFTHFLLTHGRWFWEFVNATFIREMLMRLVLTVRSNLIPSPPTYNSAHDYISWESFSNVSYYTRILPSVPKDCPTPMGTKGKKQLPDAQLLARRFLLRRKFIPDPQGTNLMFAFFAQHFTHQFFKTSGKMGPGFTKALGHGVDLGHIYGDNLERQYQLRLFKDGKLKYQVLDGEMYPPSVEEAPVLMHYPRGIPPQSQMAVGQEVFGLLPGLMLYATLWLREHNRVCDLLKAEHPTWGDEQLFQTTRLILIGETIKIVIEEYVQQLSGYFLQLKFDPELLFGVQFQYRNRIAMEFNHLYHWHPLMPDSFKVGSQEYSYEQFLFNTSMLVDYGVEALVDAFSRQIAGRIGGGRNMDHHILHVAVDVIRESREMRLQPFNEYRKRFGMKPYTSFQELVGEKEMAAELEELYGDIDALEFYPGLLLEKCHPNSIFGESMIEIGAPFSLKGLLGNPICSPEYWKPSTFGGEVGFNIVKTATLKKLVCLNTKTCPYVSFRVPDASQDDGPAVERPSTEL
Experimental: (§1) Compounds active in both the flow cytometry and MTT experiments were then tested for COX inhibition at 50 μM in an enzyme assay using COX-1 isolated from human platelets and human recombinant COX-2 purified from insect cells (Spodoptera frugiperda), as described by Riendeau et. al., Br J Pharmacol. 1997, 121, 105-117; Riendeau et. al., Can J Physiol Pharmacol. 1997, 75, 1088-1095; and Warner et. al. Proc Natl Acad Sci. 1999, 96, 7563-7568. These assays were performed by MDS Pharma Services, Bothell, Wash. The compounds were incubated in duplicate with COX-1 isolated from human platelets and human recombinant COX-2 purified from insect cells (Spodoptera frugiperda). Enzyme immunoassay quantification of prostaglandin E2 production from arachidonic acid in the presence (50 μM) and absence of test compounds was used to determine the percentage of COX inhibition.

human recombinant COX-2 = target: T2, human recombinant COX-2 (Homo sapiens, UniProt P35354); assay: COX-2 enzyme assay (PGE2 enzyme immunoassay); assay type: biochemical; settings: duplicate
T2 construct: MDS Pharma Services (performed the assay); host or cells: Spodoptera frugiperda insect cells
T2 sequence (P35354 18-604): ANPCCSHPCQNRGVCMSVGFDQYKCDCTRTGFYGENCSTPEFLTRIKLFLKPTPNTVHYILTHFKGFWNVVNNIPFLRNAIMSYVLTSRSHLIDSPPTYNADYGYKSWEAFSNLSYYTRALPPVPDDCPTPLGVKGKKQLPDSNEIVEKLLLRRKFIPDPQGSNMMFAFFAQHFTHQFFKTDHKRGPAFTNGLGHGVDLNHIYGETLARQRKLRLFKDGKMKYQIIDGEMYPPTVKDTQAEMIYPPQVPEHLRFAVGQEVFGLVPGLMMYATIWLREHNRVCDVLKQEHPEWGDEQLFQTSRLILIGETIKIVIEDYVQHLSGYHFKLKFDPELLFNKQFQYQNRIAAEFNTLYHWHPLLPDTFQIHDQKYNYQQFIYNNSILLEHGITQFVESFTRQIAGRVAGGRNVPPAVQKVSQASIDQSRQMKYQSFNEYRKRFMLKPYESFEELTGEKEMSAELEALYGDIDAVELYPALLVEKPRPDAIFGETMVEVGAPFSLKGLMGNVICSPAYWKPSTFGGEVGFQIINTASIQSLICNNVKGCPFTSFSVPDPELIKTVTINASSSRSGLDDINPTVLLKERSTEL
Experimental: as §1

CLL cells [2] = assay: MTT cytotoxicity assay, CLL cells; assay type: cell-based; settings: Homo sapiens, CLL cell, 72 hours, duplicate
Experimental: The compounds of the invention were screened for CLL apoptotic activity by flow cytometry and a MTT-based assay. […] Primary PBL cells were acquired from the San Diego Blood Bank, San Diego, Calif. DiOC6 and PI dyes were obtained from Molecular Probes, Eugene, Oreg. Otherwise, unless indicated, all other reagents were purchased from Sigma (St. Louis, Mo.), and all test compounds were dissolved in sterile DMSO.
To get a more concise measure of the EC50 and confirm the flow cytometry results, a MTT (3-(4,5-dimethylthiazol-2-yl)-2,5-diphenyl tertrazolium bromide) assay using a procedure similar to that described by Mosmann, T., J Immunol Methods. 1983, 65, 55-63, was performed on all analogs. This method provided a larger number of datapoints so that a value for the EC50 could be extrapolated.
This assay was based on a procedure described by Mosmann. Briefly, in each well of a 96-well plate, 5×10^5 CLL cells were suspended in 100 μL of […] medium containing 10% FBS, 100 μg/mL penicillin, and 100 μg/mL streptomycin. Serial dilution of test compounds were then performed in duplicate across the plate to establish a concentration gradient from 0 to 1000 μM. After 72 hours of incubation at 37° C., the cells were incubated for 6 more hours in the presence of 20 μL of 5 mg/mL MTT (3-(4,5-dimethylthiazol-2-yl)-2,5-diphenyl tertrazolium bromide) before dissolving the resulting crystals in 50 μL lysis buffer (15% SDS, 15 mM HCl) overnight. Afterwards, the absorbance of each well was measured at […] in a Finstrument Microplate Reader, and the data was analyzed by Graphpad Prism Software, version 2.0b.

in vitro = settings: human
Mcl-1 = Mcl-1 level in LNCaP cells, SDS-PAGE immunoblot; assay type: cell-based; settings: for effect on the etodolac-induced fall in Mcl-1 levels: co-incubation with 5.0 μM MG-132 or pre-incubation with Z-VAD, LNCaP
Bag-1 = Bag-1 level in LNCaP cells, SDS-PAGE immunoblot; assay type: cell-based; settings: co-incubation with 5.0 μM MG-132 or pre-incubation with Z-VAD
[3] = Plasma pharmacokinetics of etodolac enantiomers; assay type: in vivo; settings: 1 gram dosage, human subject
prostate cancer tissue = assay: Prostatectomy tissue samples incubated 72 hours, histology; assay type: cell-based
Excerpt: The tissues were next fixed in 4% paraformaldehyde in PBS, embedded in paraffin, sectioned and stained with hematoxylin and eosin.

HCT-116 (Colon) = assay: Cytotoxicity by MTT assay, HCT-116; assay type: cell-based; settings: three days continuous exposure
normal bone marrow cells = assay: Killing of normal bone marrow cells in patient bone marrow (propidium iodide / anti-CD38, FACS); assay type: cell-based, human; settings: 72 hours, marrow of two patients; FIGS. 9-10
multiple myeloma cells = assay: Killing of multiple myeloma cells in patient bone marrow (propidium iodide / anti-CD38, FACS); assay type: cell-based, human; settings: 72 hours, marrow of two patients; FIGS. 9-10
OVCAR-3 (Ovarian) = assay: Cytotoxicity by MTT assay, OVCAR-3; assay type: cell-based; settings: three days continuous exposure
adjuvant polyarthritis = settings: reduction in paw volume, prostaglandin synthetase inhibitory activity; cited from earlier work
CLL cells [4] = assay: Viability of CLL cells, erythrocin B exclusion assay; settings: for toxicity of the enantiomers to CLL cells: RPMI 1640 with 10% autologous plasma, FIG. 5
[5] = cited from earlier work
Alva-31 (Prostate) = assay: Cytotoxicity by MTT assay, Alva-31; assay type: cell-based; settings: three days continuous exposure
MDA-MB-231 (Breast) = assay: Cytotoxicity by MTT assay, MDA-MB-231; assay type: cell-based; settings: three days continuous exposure
LNCaP-FGC (Prostate) = assay: Cytotoxicity by MTT assay, LNCaP-FGC; assay type: cell-based; settings: three days continuous exposure
A549 (Lung) = assay: Cytotoxicity by MTT assay, A549; assay type: cell-based; settings: three days continuous exposure
PC-3 (Prostate) = assay: Cytotoxicity by MTT assay, PC-3; assay type: cell-based; settings: three days continuous exposure
prostate cancer = settings: TRAMP mouse; cited from earlier work
B-cell CLL cells = settings: cited from earlier work
[6] = primary normal peripheral blood lymphocyte (PBL) cells
[7] = 200 mg dose, six elderly patients

CCc1cccc2c3c([nH]c12)C(CC)(CCO)OCC3 (stereo not shown) [Compound 1, 2-(1,8-Diethyl-1,3,4,9-tetrahydropyrano[3,4-b]indol-1-yl)-ethanol] showed an inhibition at 50 µM [1] of 0%, an inhibition at 50 µM (human recombinant COX-2) of 0% and an EC50 (CLL cells [2]) of 178 µM. The CC50 at 48 h (in vitro; [6]) was about 500 µM.

CCc1cccc2c3c([nH]c12)C(CC)(CCOC)OCC3 (stereo not shown) [Compound 2, 1,8-Diethyl-1-(2-methoxyethyl)-1,3,4,9-tetrahydropyrano[3,4-b]indole] showed an EC50 (CLL cells [2]) of over 1000 µM and a CC50 at 48 h (in vitro; [6]) of over 750 µM.

Work on CCc1cccc2c3c([nH]c12)C(CC)(CCF)OCC3 (stereo not shown) [Compound 3, 1,8-Diethyl-1-(2-fluoroethyl)-1,3,4,9-tetrahydropyrano[3,4-b]indole] yielded an EC50 (CLL cells [2]) of 767 µM and a CC50 at 48 h (in vitro; [6]) of under 100 µM.

Work on CCc1cccc2c3c([nH]c12)C(CC)(CCCl)OCC3 (stereo not shown) [Compound 4, 1-(2-Chloroethyl)-1,8-diethyl-1,3,4,9-tetrahydropyrano[3,4-b]indole] yielded an EC50 (CLL cells [2]) of 572 µM and a CC50 at 48 h (in vitro; [6]) of under 100 µM.

With CCc1cccc2c3c([nH]c12)C(CC)(CC)OCC3 [Compound 5, 1,1,8-Triethyl-1,3,4,9-tetrahydropyrano[3,4-b]indole] the melting point was 133 to 134 °C and the EC50 (CLL cells [2]) was over 1000 µM.

CCc1cccc2c3c([nH]c12)C(CC)(CC(N)=O)OCC3 (stereo not shown) [Compound 6, 2-(1,8-Diethyl-1,3,4,9-tetrahydropyrano[3,4-b]indol-1-yl)-acetamide] gave an inhibition at 50 µM [1] of 36%, an inhibition at 50 µM (human recombinant COX-2) of 69% and an EC50 (CLL cells [2]) of 258 µM. The CC50 at 48 h (in vitro; [6]) was over 500 µM.

With CCc1cccc2c3c([nH]c12)C(CC)(CC=N)OCC3 (stereo not shown) [Compound 7, 2-(1,8-Diethyl-1,3,4,9-tetrahydropyrano[3,4-b]indol-yl)-ethylideneamine] the EC50 (CLL cells [2]) was 714 µM and the CC50 at 48 h (in vitro; [6]) was 250 to 500 µM.

CCc1cccc2c3c([nH]c12)C(CC)(CC=O)OCC3 (stereo not shown) [Compound 8, (1,8-Diethyl-1,3,4,9-tetrahydropyrano[3,4-b]indol-1-yl)-acetaldehyde] showed an EC50 (CLL cells [2]) of 111 µM and a CC50 at 48 h (in vitro; [6]) of under 100 µM.

Compound CCc1cccc2c3c([nH]c12)C(CC)(CCOCSC)OCC3 (stereo not shown) [Compound 9, 1,8-Diethyl-1-(2-methylsufanylmethoxyethyl)-1,3,4,9-tetrahydropyrano[3,4-b]indole] has an EC50 (CLL cells [2]) of 324 µM.

With CCc1cccc2c3c([nH]c12)C(CC)(CCOC(C)=O)OCC3 (stereo not shown) [Compound 10, Acetic acid-2-(1,8-diethyl-1,3,4,9-tetrahydropyrano[3,4-b]indol-1-yl)-ethyl ester] the EC50 (CLL cells [2]) was 686 µM and the CC50 at 48 h (in vitro; [6]) was 100 to 250 µM.

Work on CCc1cccc2c3c([nH]c12)C(CC)(CC(O)O)OCC3 (stereo not shown) [Compound 11, 2-(1,8-Diethyl-1,3,4,9-tetrahydropyrano[3,4-b]indol-1-yl)-ethane-1,1-diol] yielded a melting point of 158 to 159 °C and an EC50 (CLL cells [2]) of 416 µM.

Work on CCc1cccc2c3c([nH]c12)C(CC)(CC(C)O)OCC3 (stereo not shown) [Compound 12, 1-(1,8-Diethyl-1,3,4,9-tetrahydropyrano[3,4-b]indol-1-yl)-propan-2-ol] yielded an EC50 (CLL cells [2]) of 272 µM and a CC50 at 48 h (in vitro; [6]) of 250 to 500 µM.

For CCc1cccc2c3c([nH]c12)C(CC)(CC(C)=O)OCC3 (stereo not shown) [Compound 13, 1-(1,8-Diethyl-1,3,4,9-tetrahydropyrano[3,4-b]indol-1-yl)-propan-2-one], the EC50 (CLL cells [2]) was over 1000 µM and the CC50 at 48 h (in vitro; [6]) was over 750 µM.

For CC(C)C[C@@H](C=O)NC(=O)[C@H](CC(C)C)NC(=O)[C@H](CC(C)C)NC(=O)OCc1ccccc1 [MG-132] (Cbz-Leu-Leu-Leu-aldehyde), the “effect on the etodolac-induced fall in Mcl-1 levels” value (Mcl-1) was “prevented” and the “effect on the etodolac-induced fall in Bag-1 levels” value (Bag-1) was “prevented”.

With CCc1cccc2c3c([nH]c12)[C@@](CC)(CC(=O)O)OCC3 [R-etodolac] the “maximal plasma concentration that a dosage should yield” value [3] was “about 400 μM”, the “activity in prostatectomy samples” value (prostate cancer tissue) was “active” and the IC50 (HCT-116 (Colon); Homo sapiens, 72 h) was 280 ± 20 µM. For the same compound, the “killing of normal bone marrow cells” value (normal bone marrow cells) was “did not kill”, the “killing of multiple myeloma cells” value (multiple myeloma cells) was “dose-dependently killed” and the “Mcl-1 degradation by the enantiomers” value (Mcl-1) was “induced Mcl-1 degradation at equivalent concentrations”. The IC50 (OVCAR-3 (Ovarian); Homo sapiens, 72 h) was over 1000 µM, the anti-inflammatory activity (adjuvant polyarthritis) was “No anti-inflammatory activity was discernible” and the “toxicity of the enantiomers to CLL cells” value (CLL cells [4]) was “equivalently cytotoxic”. The maximum plasma concentration [5, 7] was “about 33 μM”, the “plasma concentrations of the R-enantiomer relative to the S-enantiomer” value ([5]; after administration of RS-etodolac) was “about 10 fold higher” and the IC50 (Alva-31 (Prostate); 72 h) was over 1000 µM. For the same compound, the IC50 (MDA-MB-231 (Breast); Homo sapiens, 72 h) was over 1000 µM, the EC50 (CLL cells [2]) was 247 µM and the CC50 at 48 h (in vitro) was about 500 µM. For the same compound, the IC50 (LNCaP-FGC (Prostate); 72 h) was 270 ± 50 µM, the IC50 (A549 (Lung); Homo sapiens, 72 h) was over 1000 µM and the IC50 (PC-3 (Prostate); 72 h) was 150 ± 15 µM.

For C[C@@H](C(=O)O)c1ccc(-c2ccccc2)c(F)c1 [R-flurbiprofen], the “progression of prostate cancer” value (prostate cancer) is listed as “inhibited progression of prostate cancer”.

With CCc1cccc2c3c([nH]c12)[C@](CC)(CC(=O)O)OCC3 [S-etodolac] the “activity in prostatectomy samples” value (prostate cancer tissue) was “active”, the IC50 (HCT-116 (Colon)) was 420 ± 50 µM and the “Mcl-1 degradation by the enantiomers” value (Mcl-1) was “induced Mcl-1 degradation at equivalent concentrations”. For the same compound, the IC50 (OVCAR-3 (Ovarian)) was over 1000 µM, the anti-inflammatory activity (adjuvant polyarthritis) was “almost all of the anti-inflammatory activity of the racemate” and the “toxicity of the enantiomers to CLL cells” value (CLL cells [4]) was “equivalently cytotoxic”. The “maximum concentration relative to the R-enantiomer” value [5, 7] was 5 fold lower, the IC50 (Alva-31 (Prostate)) was over 1000 µM and the IC50 (MDA-MB-231 (Breast)) was over 1000 µM. It also gave an IC50 (LNCaP-FGC (Prostate)) of 220 ± 20 µM, an IC50 (A549 (Lung)) of over 1000 µM and an IC50 (PC-3 (Prostate)) of 800 µM.

With CC(NC(=O)C(NC(=O)OCc1ccccc1)C(C)C)C(=O)NC(CC(=O)O)C(=O)CF (stereo not drawn) [Z-VAD] (Cbz-Val-Ala-Asp-CH2F; configuration not given here) the “effect on the etodolac-induced fall in Mcl-1 levels” value (Mcl-1) was “did not prevent” and the “effect on the etodolac-induced fall in Bag-1 levels” value (Bag-1) was “did not prevent”.

For CC(=O)Oc1ccccc1C(=O)O [aspirin], the “viability of B-cell CLL cells in vitro” value (B-cell CLL cells) is given as “reduced the viability”.

In the case of Nc1nc(F)nc2c1ncn2[C@@H]1O[C@H](CO)[C@@H](O)[C@@H]1O [fludarabine], the “cytotoxic effect on CLL cells, either drug alone” value (CLL cells [4]; fludarabine 10 nM or etodolac 10 μM alone, 48 hours, FIG. 3) is reported as “ineffective”.

For O=C(O)c1ccccc1O [salicylate], the “viability of B-cell CLL cells in vitro” value (B-cell CLL cells) is listed as “reduced the viability”.
